This is an account of results in patent US10076533B2, “Acyclic nucleoside phosphonate diesters” (The Regents of the University of California, priority 2013, dated 2018).

For data set [1], the system named is HPV-11. The experiment in a line: HPV-11 origin replication in HEK 293 cells, qPCR. Format: cell-based. The settings on record: HPV-11 origin replication in HEK 293 cells, 48 hr, qPCR; read-out: EC90 (concentration required to reduce viral replication by 90%). The procedure:
An origin-containing plasmid was co-transfected with HPV-11 E1 and E2 protein expression vectors into HEK 293 cells. At 4 hr post-transfection, cells were treated with compound dilutions and the cells were incubated for 48 hr. Replication of the virus origin was detected with DpnI and exonuclease III to remove unreplicated input bacterial plasmid DNA. Remaining replicated DNA was quantified by qPCR. Toxicity was determined by trypan blue exclusion.
(Quantitative PCR measures a nucleic acid by following its amplification.)

The subject of data set [2] is MT-2 cells. The experiment in a line: Cytotoxicity in MT-2 cells, flow cytometry cell counts and viability. Format: cell-based, human. Particulars: 72 hrs; read-out: CC50, 50% Cytotoxic concentration MT2 cells T cell leukemia. As for the experimental part:
MT-2 cells were incubated with drug for 72 hrs and harvested. Flow count beads (Beckman Coulter, Miami, Fla.) were added to the cell suspension followed by propidium iodide staining and analysis using flow cytometer and the 50% cytotoxic concentration (CC50) was calculated from the cell counts and viability.
For orientation: Flow cytometry measures light scatter and fluorescence of single cells or particles in a stream.

Data set [3] has as its system HIV-192US727. Put plainly: Anti-HIV assay in human PBMC, supernatant reverse transcriptase activity. The settings on record: for Selectivity Index: HIV-192US727, human PBMC; for EC50: Human immunodeficiency virus 1, PBMC, 168 h.
Data set [4] in a line: Cytotoxicity in 2.2.15 cells by neutral red uptake. The settings on record: human.
Data set [5] is described as follows: Viability of PBMC by XTT reduction. The settings on record: human. On the technique in general: Tetrazolium assays rely on reduction of a dye to a coloured formazan, in cell work by metabolically active cells.
The test system of data set [6] is Hepatitis B virus. The experiment in a line: HBV replication in 2.2.15 cells, HBV DNA blot hybridization. The settings on record: for EC50: Hepatitis B virus, 168 h; for Selectivity Index: hepatitis B virus, 2.2.15 cells.
The nature of data set [7]: Effect of oral compounds on body weight in Balb-c mice. Type of data set: in vivo. Particulars: for body weight Day 0: before dosing; for lost % of body weight: day 6 versus day zero. The procedure: Compounds were administered at the indicated doses by oral gavage daily for 5 days. Weights measured before and on day 6 after 5 doses.

The EC50 is the midpoint of the concentration-response curve.

A value given as a limit tells only on which side of the number the result lay.

Consider `CCCCCCCCCCCCCCCCCCOCCOP(=O)(COCCn1cnc2c(=O)[nH]c(N)nc21)OCc1ccccc1` (single isomer, unassigned) [Compound 1b, benzyl octadecyloxyethyl 9-(2-phosphonomethoxyethyl)guanine], for which the EC90 in data set [1] was 1160 nM. For the same compound, the CC50 in data set [2] was below 10 nM.
On to `CCCCCCCCCCCCCCCCCCOCCOP(=O)(CO[C@H](C)Cn1cnc2c(=O)[nH]c(N)nc21)OCc1ccccc1` (stereo partly drawn) [Compound 73, benzyl octadecyloxyethyl 9-(R)-[(2-phosphonomethoxy)propyl]guanine], for which the “Selectivity Index” value in data set [3] is above 2260; in data set [6], 1.9. The results for the 50% effective concentration (EC50) in data set [3] and in data set [6] were below 5 nM and 34 µM, respectively. Besides, the results for the CC50 at 7 days in data set [4] and in data set [5] (PHA-stimulated human PBMCs) were 63 µM and 11.3 µM, respectively.
`CCCCCCCCCCCCCCCCCCOCCOP(=O)(CO[C@H](COC)Cn1cnc2c(N)ncnc21)OCc1ccccc1` (stereo partly drawn) [Compound 146, benzyl octadecyloxyethyl 9-(S)-[(3-methoxy-2-phosphonomethoxy)propyl]adenine]: the figures for the “Selectivity Index” value in data set [3] and in data set [6] were above 312 and above 3.03, respectively. Also, the EC50 in data set [3] was below 40 nM; in data set [6], 33 µM. Also, the CC50 at 7 days in data set [4] is above 100 µM; in data set [5] (PHA-stimulated human PBMCs), 12.5 µM.
With `CCCCCCCCCCCCCCCCCCOCCOP(=O)(CO[C@H](COC)Cn1cnc2c(N)ncnc21)Oc1ccccc1` (stereo partly drawn) [Compound 164, phenyl octadecyloxyethyl 9-(S)-[(3-methoxy-2-phosphonomethoxy)propyl]adenine], the “Selectivity Index” value is reported as above 37.5 in data set [3] and above 216 in data set [6]. The EC50 in data set [3] was below 400 nM; in data set [6], 0.46 µM. Further, the CC50 at 7 days in data set [4] is above 100 µM; in data set [5], 15 µM.
On to `CCCCCCCCCCCCCCCCCCOCCOP(=O)(CO[C@H](C)Cn1cnc2c(N)ncnc21)OCc1ccccc1` (stereo partly drawn) [Compound 74, benzyl octadecyloxyethyl 9-(R)-[(2-phosphonomethoxy)propyl]adenine], for which the “Selectivity Index” value is above 4920 in data set [3] and 10 in data set [6]. The figures for the EC50 in data set [3] and in data set [6] were below 5 nM and 6.5 µM, respectively. Also, the CC50 at 7 days in data set [4] is 64 µM; in data set [5] (PHA-stimulated human PBMCs) it was 24.6 µM.
As for `CCCCCCCCCCCCCCCCCCOCCOP(=O)(O)CO[C@H](CO)Cn1ccc(N)nc1=O` [ODE-CDV], in data set [7] (20 mg/kg/day oral gavage daily for 5 days), the “body weight Day 6” value is 16.96 ± 1.38 (6). The “body weight Day 0” value in data set [7] (20 mg/kg/day oral gavage) is given as 19.88 ± 0.55 (6). Further, the “lost % of body weight” value in data set [7] (20 mg/kg/day) came to 14.7%.
`CCCCCCCCCCCCCCCCCCOCCOP(=O)(COCCn1cnc2c(=O)[nH]c(N)nc21)OCc1ccccc1` (single isomer, unassigned) [Compound 1a, benzyl octadecyloxyethyl 9-(2-phosphonomethoxyethyl)guanine]: the EC90 in data set [1] amounted to 1060 nM. Also, in data set [2], the CC50 is below 10 nM.
`CCCCCCCCCCCCCCCCCCOCCOP(=O)(O)COCCn1cnc2c(=O)[nH]c(N)nc21` [ODE-PMEG, octadecyloxyethyl 9-[2-(phosphonomethoxy)ethyl]guanine]: the “body weight Day 6” value in data set [7] (4 mg/kg/day oral gavage daily for 5 days) is listed as 15.5 ± 0.514 (3). Moreover, the “body weight Day 0” value in data set [7] (4 mg/kg/day oral gavage) was 19.17 ± 0.581 (3). The “lost % of body weight” value in data set [7] (4 mg/kg/day) amounted to 19.1%.
